Ki data for 32 molecules are collected here from ChEMBL document CHEMBL1150436 (Bioorg Med Chem Lett, 1995).

Experiment [1] addresses T1, 5-hydroxytryptamine receptor 1A (Rattus norvegicus, UniProt P19327).
T1 sequence (P19327 whole entry): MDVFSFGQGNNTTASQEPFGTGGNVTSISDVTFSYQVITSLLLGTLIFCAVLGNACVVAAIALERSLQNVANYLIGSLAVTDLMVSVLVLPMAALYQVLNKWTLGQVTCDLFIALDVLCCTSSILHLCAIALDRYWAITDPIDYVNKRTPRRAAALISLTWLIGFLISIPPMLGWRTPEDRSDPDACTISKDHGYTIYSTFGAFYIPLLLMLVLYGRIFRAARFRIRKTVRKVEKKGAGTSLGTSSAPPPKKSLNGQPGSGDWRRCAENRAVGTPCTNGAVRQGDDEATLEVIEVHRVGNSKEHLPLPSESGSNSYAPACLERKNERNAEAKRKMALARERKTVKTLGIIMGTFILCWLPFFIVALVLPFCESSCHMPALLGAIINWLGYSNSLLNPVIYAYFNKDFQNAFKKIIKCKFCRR
Briefly: Ability to displace [3H]-8-OH-DPAT from serotonergic 5-hydroxytryptamine 1A receptor.

For experiment [2], the target named is T2, Serotonin 2 (5-HT2) receptor (Rattus norvegicus, UniProt P30994+P08909+P14842). The experiment can be described thus: Ability to displace [3H]ketanserin from serotonergic 5-hydroxytryptamine 2 receptor. It counts as protein assay.
The target of experiment [3] is T3, D(2) dopamine receptor (Rattus norvegicus, UniProt P61169). Briefly: Ability to displace [3H]spiperone from D2 dopamine receptor isolated from the striata of male Wistar rats.
T3 sequence (P61169 whole entry): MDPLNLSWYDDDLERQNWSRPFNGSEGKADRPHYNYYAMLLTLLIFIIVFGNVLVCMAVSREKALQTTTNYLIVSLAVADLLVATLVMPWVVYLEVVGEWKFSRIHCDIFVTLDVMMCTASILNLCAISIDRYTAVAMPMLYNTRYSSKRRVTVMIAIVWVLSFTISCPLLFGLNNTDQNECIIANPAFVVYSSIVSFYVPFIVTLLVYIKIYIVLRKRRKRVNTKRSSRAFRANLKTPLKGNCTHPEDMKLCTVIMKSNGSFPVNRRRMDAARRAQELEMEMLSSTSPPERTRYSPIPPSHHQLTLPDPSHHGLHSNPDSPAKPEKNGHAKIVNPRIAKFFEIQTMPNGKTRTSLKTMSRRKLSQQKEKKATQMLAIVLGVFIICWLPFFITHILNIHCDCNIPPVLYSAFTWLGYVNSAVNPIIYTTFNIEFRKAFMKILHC
The target in experiment [4] is T1, 5-hydroxytryptamine receptor 1A. The experiment can be described thus: Compound was evaluated for its ability to displace [3H]8-OH-DPAT from serotonergic 5-hydroxytryptamine 1A receptor.
In experiment [5] the target is T2, Serotonin 2 (5-HT2) receptor. The experiment can be described thus: Compound was evaluated for its ability to displace [3H]ketanserin from serotonergic 5-hydroxytryptamine 2 receptor. It counts as protein assay.
Experiment [6] addresses T3, D(2) dopamine receptor. Briefly: Compound was evaluated for its ability to displace [3H]spiperone from D2 dopamine receptor isolated from the striata of male Wistar rats.

Each structure is given as a SMILES string.

As a reminder, the Ki is a measure of affinity in units of concentration, obtained from inhibition or displacement. A lower Ki goes with a stronger hold on the target. Take `CCCCN1CCC[C@@H]1CNC(=O)c1cc(SC)cc2c1OCCN2C`: the Ki is 120 nM in experiment [1], 22 nM in experiment [2] and 17 nM on D(2) dopamine receptor [3].
The like results for `CN1CCOc2c(C(=O)NC[C@@H]3CCCN3Cc3ccccc3)cc(Cl)cc21` were, in that order, 220 nM, 420 nM and 310 nM.
The like results for `CCCCCCCCCN1CCC[C@@H]1CNC(=O)c1cc(Cl)cc2c1OCC(=O)N2C` were, in that order, above 1000 nM, above 1000 nM and above 1000 nM.
The like results for `CCN1CCC[C@@H]1CNC(=O)c1cc(Cl)cc2c1OCC2` were, in that order, above 1000 nM, above 1000 nM and above 1000 nM.
On to `CCN1CCC[C@H]1CNC(=O)c1cc(Cl)cc2c1OCC2`, for which the inhibition constant (Ki) in experiment [1] was above 1000 nM; in experiment [2], above 1000 nM; at D(2) dopamine receptor [3], 6.5 nM.
As to `CCN1CCC[C@H]1CNC(=O)c1cc(Cl)cc2c1OCCN2C`, the figures for the inhibitory constant (Ki) (in experiment [1]; in experiment [2]; at D(2) dopamine receptor [3]) were above 1000 nM, above 1000 nM and 16 nM, respectively.
`CCCCCCCCCN1CCC[C@@H]1CNC(=O)c1cc(S(N)(=O)=O)ccc1OC`: the inhibition constant (Ki) in experiment [1] came out at 16 nM; in experiment [2], 3700 nM; on D(2) dopamine receptor [3], 92 nM.
The like results for `CCCCN1CCC[C@H]1CNC(=O)c1cc(SC)cc2c1OCCN2C` were, in that order, 19 nM, 2100 nM and 3.6 nM.
Consider `CCCCCCCCCN1CCC[C@H]1CNC(=O)c1cc(Cl)cc2c1OCC2`, for which the inhibition constant (Ki) in experiment [1] was 570 nM; in experiment [2], above 1000 nM; on D(2) dopamine receptor [3], above 1000 nM.
For `CCCCN1CCC[C@@H]1CNC(=O)c1cc(Cl)cc2c1OCC2`, the inhibition constant (Ki) in experiment [1] was 330 nM; in experiment [2], 400 nM.
For the molecule `CCCCN1CCCC1CNC(=O)c1cccc2c1OCCN2C` (centres undefined), the values for the inhibition constant (Ki) (in experiment [4]; in experiment [5]; at D(2) dopamine receptor [6]) were 170 nM, 2200 nM and 270 nM, respectively.
As for `CN1CCOc2c(C(=O)NC[C@H]3CCCN3Cc3ccccc3)cc(Cl)cc21`, the inhibition constant Ki in experiment [1] was 21 nM; in experiment [2], 99 nM; on D(2) dopamine receptor [3], 210 nM.
For `CCN1CCC[C@@H]1CNC(=O)c1cc(Cl)cc2c1OCCN2C` the same measures were above 1000 nM, above 1000 nM and above 1000 nM.
`CCCCN1CCC[C@H]1CNC(=O)c1cc(Cl)cc2c1OCC2`: the results for the inhibitory constant (Ki) in experiment [1] and in experiment [2] were 18 nM and 3300 nM, respectively.
Turning to `CCCCCCCCCN1CCC[C@@H]1CNC(=O)c1cc(Cl)cc2c1OCCN2C`, the Ki is above 1000 nM in experiment [4], above 1000 nM in experiment [5] and 690 nM at D(2) dopamine receptor [6].
In the case of `CSc1cc(C(=O)NC[C@@H]2CCCN2Cc2ccccc2)c2c(c1)N(C)CCO2`, the inhibition constant Ki came out at 880 nM in experiment [1], 550 nM in experiment [2] and 270 nM at D(2) dopamine receptor [3].
As to `CCCCN1CCC[C@H]1CNC(=O)c1cc(S(N)(=O)=O)ccc1OC`, the Ki in experiment [4] was 1200 nM; in experiment [5] it was above 1000 nM.
As for `CSc1cc(C(=O)NC[C@H]2CCCN2Cc2ccccc2)c2c(c1)N(C)CCO2`, the results for the Ki (in experiment [1]; in experiment [2]; at D(2) dopamine receptor [3]) were 17 nM, 27 nM and 4.2 nM, respectively.
Turning to `CCCCN1CCC[C@@H]1CNC(=O)c1cc(S(N)(=O)=O)ccc1OC`, the values for the Ki in experiment [4] and in experiment [5] were 4500 nM and above 1000 nM, respectively.
In the case of `CCCCCCCCCN1CCC[C@@H]1CNC(=O)c1cc(Cl)cc2c1OCC2`, the inhibitory constant (Ki) in experiment [1] is 330 nM; in experiment [2], above 1000 nM; on D(2) dopamine receptor [3] it was 84 nM.
As to `CCN1CCC[C@@H]1CNC(=O)c1cc(Cl)cc2c1OCC(=O)N2C`, the Ki (in experiment [1]; in experiment [2]; on D(2) dopamine receptor [3]) was above 1000 nM throughout.
For `CCN1CCC[C@H]1CNC(=O)c1cc(Cl)cc2c1OCC(=O)N2C`, the Ki (in experiment [1]; in experiment [2]; on D(2) dopamine receptor [3]) was above 1000 nM each time.
Take `CCCCN1CCC[C@@H]1CNC(=O)c1cc(Cl)cc2c1OCCN2C`: the results for the inhibitory constant (Ki) (in experiment [4]; on D(2) dopamine receptor [6]) were 430 nM and 630 nM, respectively.
`CN1CCOc2c(C(=O)NC[C@H]3CCCN3CCc3ccccc3)cc(Cl)cc21`: the Ki in experiment [1] worked out at 35 nM; in experiment [2] it was 1700 nM; on D(2) dopamine receptor [3], 57 nM.
Turning to `CCCCN1CCCC1CNC(=O)c1cc(S(N)(=O)=O)cc2c1OCCN2C` (centres undefined), the Ki was 450 nM in experiment [4], 3000 nM in experiment [5] and 670 nM on D(2) dopamine receptor [6].
Consider `CCCCCCCCCN1CCC[C@H]1CNC(=O)c1cc(S(N)(=O)=O)ccc1OC`, for which the inhibition constant (Ki) in experiment [1] was 81 nM; in experiment [2], 2300 nM; on D(2) dopamine receptor [3], 180 nM.
Turning to `CN1CCOc2c(C(=O)NC[C@@H]3CCCN3CCc3ccccc3)cc(Cl)cc21`, the results for the Ki (in experiment [1]; at D(2) dopamine receptor [3]) were 10 nM and 800 nM, respectively.
On to `CCCCN1CCC[C@@H]1CNC(=O)c1cc(Cl)cc2c1OCC(=O)N2C`, for which the Ki (in experiment [1]; in experiment [2]; at D(2) dopamine receptor [3]) was above 1000 nM in each case.
With `CCCCN1CCC[C@H]1CNC(=O)c1cc(Cl)cc2c1OCCN2C`, the Ki in experiment [4] came out at 34 nM; at D(2) dopamine receptor [6], 12 nM.
Consider `CCCCCCCCCN1CCC[C@H]1CNC(=O)c1cc(Cl)cc2c1OCCN2C`, for which the Ki was 280 nM in experiment [4], above 1000 nM in experiment [5] and 750 nM on D(2) dopamine receptor [6].
Regarding `CCCCCCCCCN1CCC[C@H]1CNC(=O)c1cc(Cl)cc2c1OCC(=O)N2C`, the inhibition constant Ki (in experiment [1]; in experiment [2]; at D(2) dopamine receptor [3]) was above 1000 nM in each case.
On to `CCCCN1CCC[C@H]1CNC(=O)c1cc(Cl)cc2c1OCC(=O)N2C`, for which the Ki (in experiment [1]; in experiment [2]; at D(2) dopamine receptor [3]) was above 1000 nM throughout.
